Laboratory results as given in paper PMC8845043 (ACS Pharmacology & Translational Science, 2022).

What was measured:
[1] = target: hBChE from freshly collected human plasma (Homo sapiens, UniProt P06276); experiment: Ex vivo anticholinesterase activity; type: biochemical
[2] = target: hAChE from freshly collected human erythrocytes (Homo sapiens, UniProt P22303); experiment: Ex vivo anticholinesterase activity; type: biochemical
[3] = human plasma, following a Posiphen 40 mg dose; cited from earlier work

Sequence of hBChE from freshly collected human plasma (P06276 29-602): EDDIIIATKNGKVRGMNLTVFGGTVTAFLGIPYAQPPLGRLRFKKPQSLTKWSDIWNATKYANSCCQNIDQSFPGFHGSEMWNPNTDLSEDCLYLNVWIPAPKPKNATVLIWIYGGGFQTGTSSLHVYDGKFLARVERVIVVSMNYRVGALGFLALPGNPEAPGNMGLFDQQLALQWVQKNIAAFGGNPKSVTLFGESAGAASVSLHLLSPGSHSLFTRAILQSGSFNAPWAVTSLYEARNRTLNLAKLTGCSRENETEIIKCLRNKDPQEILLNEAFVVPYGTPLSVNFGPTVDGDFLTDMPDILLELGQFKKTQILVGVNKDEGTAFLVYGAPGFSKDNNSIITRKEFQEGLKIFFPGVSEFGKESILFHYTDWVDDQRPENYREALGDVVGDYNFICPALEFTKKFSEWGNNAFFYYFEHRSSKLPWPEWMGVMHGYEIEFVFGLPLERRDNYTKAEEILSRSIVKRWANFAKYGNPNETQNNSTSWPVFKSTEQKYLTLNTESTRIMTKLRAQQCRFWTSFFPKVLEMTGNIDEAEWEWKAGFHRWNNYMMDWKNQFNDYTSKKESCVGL
Sequence of hAChE from freshly collected human erythrocytes (P22303 32-617 isoform P22303-2 limits assumed): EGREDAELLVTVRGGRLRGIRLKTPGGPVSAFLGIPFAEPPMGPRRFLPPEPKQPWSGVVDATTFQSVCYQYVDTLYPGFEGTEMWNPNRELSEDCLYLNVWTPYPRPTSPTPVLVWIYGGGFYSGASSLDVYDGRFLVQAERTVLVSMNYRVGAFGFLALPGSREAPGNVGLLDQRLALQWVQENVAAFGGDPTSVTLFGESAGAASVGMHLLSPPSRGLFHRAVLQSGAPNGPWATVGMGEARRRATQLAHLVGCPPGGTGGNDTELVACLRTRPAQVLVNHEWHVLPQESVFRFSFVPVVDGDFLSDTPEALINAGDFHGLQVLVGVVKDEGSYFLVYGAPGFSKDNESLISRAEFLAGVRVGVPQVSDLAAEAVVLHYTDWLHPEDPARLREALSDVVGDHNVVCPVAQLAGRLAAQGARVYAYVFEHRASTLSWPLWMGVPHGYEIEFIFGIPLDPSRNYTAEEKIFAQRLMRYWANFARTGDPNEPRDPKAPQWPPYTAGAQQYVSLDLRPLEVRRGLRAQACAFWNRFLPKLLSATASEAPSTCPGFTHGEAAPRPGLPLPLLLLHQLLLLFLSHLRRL

SMILES | IC50 [1] [µM] | IC50 [2] [µM] | AChE inhibitory action (in words) ([2]; wet lab evaluation, human AChE) | plasma concentration CMax [3] [ng/mL]
CN1CC[C@@]2(C)c3cc(OC(=O)Nc4ccccc4)ccc3N(C)[C@@H]12 [Phenserine, reference compound] | 1.38 ± 0.24 |  |  | 
CN1CC[C@]2(C)c3cc(OC(=O)Nc4ccccc4)ccc3N(C)[C@H]12 [Posiphen] | > 10 | > 10 | lacks AChE inhibitory action | 118.5
